The results in this text go back to patent US20170014375A1, “PHARMACEUTICAL COMPOSITION COMPRISING EFFECTIVE DOSE OF POMIFERIN FOR TREATING CANCERS” (Macau University of Science and Technology, priority 2015, published 2017).

Assay [1] deals with HCT116 p53+/− (heterozygous) isogenic colon cancer cells. The assay is described as follows: MTT cytotoxicity assay, HCT116 p53+/−. Format: cell-based. As to conditions: Homo sapiens, HCT-116, 72 h, 3 days, read-out: Means of IC50. The protocol: (§1) The test compound of pomiferin is dissolved in DMSO at a final concentration of 100 mmol/L and stored at −20° C. Cytotoxicity is assessed using the 3-(4,5-dimethylthiazol-2-yl)-2,5-diphenyltetrazolium bromide assay as previously described^29. 4000 of drug-resistant HCT-116 p53+/+, HCT-116 p53−/− and HCT-116 p53−/− isogenic colon cancer cells are seeded on 96-well plates per well. After overnight pre-incubation, the cells are exposed to different concentrations of pomiferin (namely […]) for 3 days. Subsequently, 10 μL of MTT reagents is added to each well and incubated at 37° C. for 4 hours, followed by the addition of 100 μL solubilization buffer (10% SDS in 0.01 mol/L HCl) and overnight incubation. Absorbance at 585 nm is determined from each well on the following day. The percentage of cell viability is calculated using the following formula: Cell viability (%)=Cells numbertreated/Cells numberDMSO control×100. Data is obtained from three independent experiments.
In general terms: Tetrazolium assays rely on reduction of a dye to a coloured formazan, in cell work by metabolically active cells.

The subject of assay [2] is MCF-7 (human breast cancer) cells. Put plainly: MTT cytotoxicity assay, MCF-7. Format: cell-based. As to conditions: MCF7, 72 h, MCF-7 (Breast), 3 days, read-out: Means of IC50. The protocol: (§2) Pomiferin is dissolved in DMSO at a final concentration of 100 mmol/L and stored at −20° C. Cytotoxicity is assessed using the 3-(4,5-dimethylthiazol-2-yl)-2,5-diphenyltetrazolium bromide assay. 4000-8000 HeLa (human cervical cancer), MCF-7 (human breast cancer), HepG2 and Hep3B (human liver cancer), H1299 and A549 (human lung cancer), LNCap (human prostate cancer) and LLC-1 (mouse Lewis lung carcinoma) cells are seeded on 96-well plates per well. After overnight pre-incubation, the cells are exposed to different concentrations of pomiferin ([…]) for 3 days. Subsequently, 10 μL of MTT reagents is added to each well and incubated at 37° C. for 4 hours followed by the addition of 100 μL solubilization buffer (10% SDS in 0.01 mol/L HCl) and overnight incubation. Absorbance at 585 nm is determined from each well the next day. The percentage of cell viability is calculated using the following formula: Cell viability (%)=Cells number treated/Cells number DMSO control×100. Data are obtained from three independent experiments.

In assay [3] the test system is Hep3B (human liver cancer) cells. Put plainly: MTT cytotoxicity assay, Hep3B. To be noted: 72 h, Hep 3B (Liver), 3 days, read-out: Means of IC50. The assay is classed as cell-based. The procedure: as §2
Assay [4] has as its system HepG2 (human liver cancer) cells. Put plainly: MTT cytotoxicity assay, HepG2. Format: cell-based. As to conditions: 72 h, 3 days, read-out: Means of IC50. The protocol: as §2
The subject of assay [5] is AMPK-mTOR signaling in HeLa cancer cells. Put plainly: Western blot of mTOR signaling marker proteins (P-AMPK, P-p70S6K). Format: cell-based, human. As to conditions: FIG. 3A. The protocol: HeLa cancer cells treated with indicated time and concentrations of pomiferin are harvested and lysed in RIPA buffer (Cell Signaling). The cell lysates are then resolved by SDS-PAGE. After electrophoresis, the proteins from SDS-PAGE are transferred to nitrocellulose membrane which is then blocked with 5% non-fat dried milk for 60 minutes. The membrane is then incubated with P-p70S6K, p70S6K, P-AMPK, AMPK and actin primary antibodies (1:1000) in TBST overnight at 4° C. respectively. After that, the membrane is further incubated with HRP-conjugated secondary antibodies for 60 minutes. Finally, protein bands are visualized by using the ECL Western Blotting Detection Reagents (Invitrogen).
For orientation: Immunoblotting shows a protein as a band on a membrane.

For assay [6], the system named is A549 (human lung cancer) cells. Put plainly: MTT cytotoxicity assay, A549. The assay is classed as cell-based. As to conditions: 72 h, 3 days, read-out: Means of IC50. The protocol: as §2
In assay [7] the test system is Atg7 wild-type (Atg7+/+) mouse embryonic fibroblasts. The assay is described as follows: Endogenous autophagic LC3 puncta, Atg7 wild-type MEFs. Format: cell-based. To be noted: 2 μM, FIG. 6A. The procedure:
Endogenous LC3 puncta formation is quantified as previously described^2. In brief, both Atg7 wild-type and deficient mouse embryonic fibroblasts (MEFs) grown on coverslips in a 6-well plate are treated with indicated concentrations of pomiferin. Both Atg7 wild-type and deficient mouse embryonic fibroblasts are then fixed in 4% paraformaldehyde for 20 minutes at room temperature and then rinsed with PBS. After washing with PBS, the cells are then incubated with anti-LC3 (1:200) in TBST (100 mM Tris HCl, pH 7.5, 150 mM NaCl, 0.05% Tween 20 and 5% BSA) overnight at 4. After washing with PBS, the cells are incubated with anti-mouse secondary antibody (TRITC) 1:200 in TBST containing 5% BSA at 37 for 1 hrs in the dark. The coverslips are then mounted with FluorSave™ mounting media (Calbiochem, San Diego, Calif., USA) for fluorescence imaging and localization of LC3 autophagosomes are captured under the API Delta Vision Live-cell Imaging System (Applied Precision Inc., GE Healthcare Company, Washington, USA). To quantify for autophagy, the percentage of cells with punctate TRITC-LC3 fluorescence is calculated by counting the number of the cells with punctate TRITC-LC3 fluorescence in TRITC-positive cells. A minimum of 150 cells from 3 randomly selected fields is scored.

Assay [8] addresses T1, Ca2+ ATPase (SERCA1A) (Oryctolagus cuniculus, UniProt P04191).
T1 construct: (SERCA1A) is prepared from female rabbit hind leg muscle; from tissue; host or cells: female rabbit hind leg (skeletal) muscle, sarcoplasmic reticulum membranes
The assay is described as follows: Measurement of SERCA activity (enzyme-coupled ATPase assay). As to conditions: rabbit skeletal muscle SR membranes; FIG. 5B. Format: biochemical. The protocol: Purified Ca^2+ ATPase (SERCA1A) is prepared from female rabbit hind leg muscle^27. ATPase activity is determined using the enzyme-coupled method utilizing pyruvate kinase and lactate dehydrogenase as previously described in Michelangeli et al. (1990). All SERCA inhibition data are fitted to the allosteric dose versus effect equation using Fig P (Biosoft):
Activity=minimum activity+(maximum activity−minimum activity)/(1+([I]/IC50)P).

Assay [9] has as its system HCT-116 p53−/− isogenic colon cancer cells. The assay is described as follows: MTT cytotoxicity assay, HCT116 p53−/−. Format: cell-based. As to conditions: Homo sapiens, HCT-116, 72 h, HCT116 p53−/− (p53-deficient), 3 days, read-out: Means of IC50. The protocol:
as §1

Each structure is given as a SMILES string.

T1 sequence (P04191 1-994 isoform P04191-2): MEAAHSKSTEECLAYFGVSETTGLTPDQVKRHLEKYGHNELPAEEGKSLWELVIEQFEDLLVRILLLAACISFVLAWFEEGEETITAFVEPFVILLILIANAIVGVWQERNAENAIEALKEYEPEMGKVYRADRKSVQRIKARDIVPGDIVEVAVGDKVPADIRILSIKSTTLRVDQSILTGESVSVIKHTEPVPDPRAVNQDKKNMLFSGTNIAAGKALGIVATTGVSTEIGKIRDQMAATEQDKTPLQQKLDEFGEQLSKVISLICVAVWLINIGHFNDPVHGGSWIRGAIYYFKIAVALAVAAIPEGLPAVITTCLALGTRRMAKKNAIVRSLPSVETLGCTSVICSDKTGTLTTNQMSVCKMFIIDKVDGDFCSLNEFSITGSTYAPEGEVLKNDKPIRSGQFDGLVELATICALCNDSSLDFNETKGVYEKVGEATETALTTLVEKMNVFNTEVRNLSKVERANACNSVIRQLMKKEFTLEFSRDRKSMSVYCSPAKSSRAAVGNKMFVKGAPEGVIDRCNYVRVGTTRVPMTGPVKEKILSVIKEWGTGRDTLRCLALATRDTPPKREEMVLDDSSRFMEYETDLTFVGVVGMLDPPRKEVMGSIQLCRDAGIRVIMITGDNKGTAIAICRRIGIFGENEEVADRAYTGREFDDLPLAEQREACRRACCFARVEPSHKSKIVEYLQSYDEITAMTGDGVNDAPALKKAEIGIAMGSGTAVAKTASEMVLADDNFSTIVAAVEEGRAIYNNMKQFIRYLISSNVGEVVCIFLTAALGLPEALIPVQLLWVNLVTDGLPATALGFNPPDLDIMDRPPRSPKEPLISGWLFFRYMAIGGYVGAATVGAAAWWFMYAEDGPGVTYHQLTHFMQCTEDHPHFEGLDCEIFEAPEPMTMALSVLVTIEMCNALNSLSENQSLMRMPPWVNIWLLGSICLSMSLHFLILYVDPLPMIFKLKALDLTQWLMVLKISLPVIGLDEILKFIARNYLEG

As for `CC(C)=CCc1c2c(c3occ(-c4ccc(O)c(O)c4)c(=O)c3c1O)C=CC(C)(C)O2` [pomiferin], the IC50 (in general, the midpoint of a concentration-inhibition curve) in [1] turned out to be 5.58 µM; in [2], 19 µM; in assay [3], 16.3 µM; in assay [4], 13.6 µM; in assay [6], 20.3 µM; in [9] it was 6.12 µM. The “p70S6K phosphorylation (mTOR downstream)” value in assay [5] is listed as “concomitant reduction”. In addition, the “phosphorylation of AMPK” value in assay [5] is recorded as “activate the phosphorylation of AMPK in a time dependent manner”. For the same compound, the TRITC-LC3 puncta formation entry in [7] was “induce TRITC-LC3 puncta formation”. Moreover, in [8], the SERCA1A pump inhibition entry is listed as “inhibited by pomiferin in a dose-dependent manner”.
